Source: PubChem BioAssay AID1259407 (Chemical Carcinogenesis Research Information System (CCRIS), 2018)
The source made the active and inactive calls. No rule for the calls is given here.

Test system: CCRIS mutagenicity, Ames/micronucleus/aberration tests
Assay: CCRIS mutagenicity studies
Conditions: Test System: AMES SALMONELLA TYPHIMURIUM
[1] = Strain/Indicator: TA100, Metabolic Activation: RAT, LIVER, S-9, AROCLOR 1254, Method: STANDARD PLATE
[2] = Strain/Indicator: TA102, Metabolic Activation: RAT, LIVER, S-9, AROCLOR 1254, Method: STANDARD PLATE
[3] = Strain/Indicator: TA100, Metabolic Activation: NONE, Method: STANDARD PLATE

COC(=O)[C@H]1[C@H]2C[C@@H]3c4[nH]c5cc(OC)ccc5c4CCN3C[C@H]2C[C@@H](OC(=O)/C=C/c2cc(OC)c(OC)c(OC)c2)[C@@H]1OC
mutagenic call (Strain/Indicator: TA97, Metabolic Activation: HAMSTER, LIVER, S-9, AROCLOR 1254 (10 OR 30%), Method: PREINCUBATION): inactive; negative
mutagenic call (Strain/Indicator: TA97, Metabolic Activation: NONE, Method: PREINCUBATION): inactive; negative
mutagenic call (Strain/Indicator: TA97, Metabolic Activation: RAT, LIVER, S-9, AROCLOR 1254 (10 OR 30%), Method: PREINCUBATION): inactive; negative
mutagenic call (Strain/Indicator: TA98, Metabolic Activation: HAMSTER, LIVER, S-9, AROCLOR 1254 (10 OR 30%), Method: PREINCUBATION): inactive; negative
mutagenic call (Strain/Indicator: TA98, Metabolic Activation: NONE, Method: PREINCUBATION): inactive; negative
mutagenic call (Strain/Indicator: TA98, Metabolic Activation: RAT, LIVER, S-9, AROCLOR 1254 (10 OR 30%), Method: PREINCUBATION): inactive; negative
mutagenic call (Strain/Indicator: TA100, Metabolic Activation: HAMSTER, LIVER, S-9, AROCLOR 1254 (10 OR 30%), Method: PREINCUBATION): inactive; negative
mutagenic call (Strain/Indicator: TA100, Metabolic Activation: NONE, Method: PREINCUBATION): inactive; negative
mutagenic call (Strain/Indicator: TA100, Metabolic Activation: RAT, LIVER, S-9, AROCLOR 1254 (10 OR 30%), Method: PREINCUBATION): inactive; negative
mutagenic call (Strain/Indicator: TA1535, Metabolic Activation: HAMSTER, LIVER, S-9, AROCLOR 1254 (10 OR 30%), Method: PREINCUBATION): inactive; negative
mutagenic call (Strain/Indicator: TA1535, Metabolic Activation: NONE, Method: PREINCUBATION): inactive; negative
mutagenic call (Strain/Indicator: TA1535, Metabolic Activation: RAT, LIVER, S-9, AROCLOR 1254 (10 OR 30%), Method: PREINCUBATION): inactive; negative
mutagenic call (Strain/Indicator: TA1537, Metabolic Activation: HAMSTER, LIVER, S-9, AROCLOR 1254 (30%), Method: PREINCUBATION): inactive; negative
mutagenic call (Strain/Indicator: TA1537, Metabolic Activation: NONE, Method: PREINCUBATION): inactive; negative
mutagenic call (Strain/Indicator: TA1537, Metabolic Activation: RAT, LIVER, S-9, AROCLOR 1254 (30%), Method: PREINCUBATION): inactive; negative

O=c1[nH]c2c(c(=O)n1C1CCCCC1)CCC2
mutagenic call (Strain/Indicator: TA97, Metabolic Activation: RAT, LIVER, S-9, AROCLOR 1254, Method: STANDARD PLATE): inactive; negative
mutagenic call (Strain/Indicator: TA97, Metabolic Activation: RAT, LIVER, S-9, AROCLOR 1254 AND NADPH, Method: STANDARD PLATE): inactive; negative
mutagenic call (Strain/Indicator: TA98, Metabolic Activation: RAT, LIVER, S-9, AROCLOR 1254, Method: STANDARD PLATE): inactive; negative
mutagenic call (Strain/Indicator: TA98, Metabolic Activation: RAT, LIVER, S-9, AROCLOR 1254 AND NADPH, Method: STANDARD PLATE): inactive; negative
mutagenic call [1]: inactive; negative
mutagenic call (Strain/Indicator: TA100, Metabolic Activation: RAT, LIVER, S-9, AROCLOR 1254 AND NADPH, Method: STANDARD PLATE): inactive; negative
mutagenic call [2]: inactive; negative
mutagenic call (Strain/Indicator: TA102, Metabolic Activation: RAT, LIVER, S-9, AROCLOR 1254 AND NADPH, Method: STANDARD PLATE): inactive; negative

CC(C)CN(N)CC(C)C
mutagenic call [3]: active; positive
mutagenic call [1]: active; positive
mutagenic call (Strain/Indicator: TA102, Metabolic Activation: NONE, Method: STANDARD PLATE): inactive; negative
mutagenic call [2]: inactive; negative

O=C1C=CC(=C(Cl)Cl)O1
mutagenic call [3]: active; positive
